Measured values: US7012098B2, “Inhibitors of inducible nitric oxide synthase for chemoprevention and treatment of cancers” (Pharmacia Corporation, priority 2001, dated 2006)
Counter-ions that a name gives are not always drawn. Like-named read-outs stand apart in the source and are kept apart here.

What was measured:
AOM-induced colonic ACF = assay: Chemopreventive effects in rats with azoxymethane-induced aberrant crypt foci; assay type: in vivo, male F344 rats; settings: for Foci containing 1 Crypt / Foci containing 2 Crypt / Foci containing 3 Crypt / Foci containing ≧4 Crypts / Total ACF incidence: AOM-treated male F344 rats, Mean ± SEM
From the text: In Vivo Assay of Chemopreventive Effects of Therapeutic Compounds in Rats with Azoxymethane-induced Aberrant Crypt Foci
Azoxymethane (AOM) (CAS:25843-45-2) was purchased from Ash Stevens (Detroit, Mich.). iNOS and COX-2 selective inhibitors were provided by Pharmacia, (St. Louis, […].). Sulindac, a non-selective inhibitor of COX-isoforms and a known inhibitor of colon carcinogenesis, was supplied by the Chemoprevention Branch of the National Cancer Institute (Bethesda, Md.). Weanling male F344 rats were purchased from Charles River Breeding Laboratories (Kingston, N.Y.). All ingredients of the semipurified diet were obtained from Dyets Inc., (Bethlehem, Pa.) and were stored at 4° C. until the experimental diets were prepared. The rats were held in quarantine for 1 week and had access to modified AIN-76A semipurified control diet (Reddy et al., Cancer Res. 50: 2562-2568, 1990, which is herein incorporated by reference.). They were randomly distributed into various dietary groups and were transferred to an animal holding room where they were housed, three rats to a plastic cage, under controlled conditions of a 12-h light/12-h dark cycle, 50% relative humidity and 21° C. room temperature. Experimental diets were prepared by mixing chemopreventive agents with modified AIN-76A control diet.
To quantify aberrant crypt foci, after a minimum of 24 h in buffered formalin, the colons were cut into 2-cm segments starting at the anus; for the next 5-10 min they were placed in a Petri dish containing 0.2% methylene blue in Krebs Ringer solution. They were then placed, mucosal side up, on a microscope slide and observed through a light microscope. Aberrant crypt foci were recorded according to standard procedures that are being used routinely in our laboratory (Rao et al., Carcinogenesis 21: 617-21, 2000; Rao et al., Cancer Res. 53:4182-88, 1993, which are herein incorporated by reference.). […] The parameters used to assess the aberrant crypts were their occurrence and multiplicity. Crypt multiplicity was determined as the number of crypts in each focus and categorized as containing up to 3, or 4 or more aberrant crypts/focus.

NOS = assay: Colonic mucosal NOS activity after dietary treatment; assay type: in vivo, male F344 rats; settings: 100 ppm in diet; AOM-treated rats, colonic mucosa; Mean ± SEM
Protocol: (§1) In Vivo Assay of Modulation of Colonic Mucosal Activities of NOS and COX isoforms by iNOS and COX-2 Inhibitors
(§2) NOS and iNOS activities were determined in colonic samples as prepared and described above. Conversion of L-arginine to L-citrulline was measured by a modification of an earlier described method (Rao et al, Carcinogenesis 21, supra; Ambs et al., Cancer Res. 58:334-41, 1998, which is herein incorporated by reference). The assay was carried out by adding 100 μg sample protein to 150 μl of assay buffer [50 mM HEPES, 1 mM DTT, 1 mM MgCl2, 5 mg/L pepstatin A, 0.1 mM PMSF, and 3 mg/L aprotinin, pH 7.4] containing 70 μM arginine, 250,000 dpm L-[^3H]-arginine, 2 mM NADPH, 5μM tetrahydro biopterin, 5 μM flavin adenine dinucleotide, and 0.5 mM CaCi2 to measure total NOS activity, or 1 mM EGTA (without calcium) to determine Ca+^2-independent iNOS activity. After 30 min at 37° C., the reaction was stopped with 100 μl of 1M trichloroacetic acid. Then the samples were adjusted to pH 4.6 by adding 500 μl of 20 mM HEPES and loaded on to Dowex AG 50W-X8 resin columns. L-[^3H]-citrulline was eluted and separated on TLC. Radioactivity was counted by a BioScan Radiomatic detector. Results are expressed as pmol L-[^3H]-citrulline released/mg protein/min.

iNOS = iNOS (Rattus norvegicus, UniProt Q06518); assay: Colonic mucosal iNOS activity after dietary treatment; assay type: in vivo, male F344 rats
Protocol: as §1, §2

in vivo = settings: male, F344, rat, plasma, oral
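For Plasma level in this document: plasma drug concentrations quantified by liquid chromatography with tandem mass spectrometry following solid phase extraction, reported as mean ± SEM.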
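For Plasma level of compound XI in this document: plasma drug concentrations quantified by liquid chromatography with tandem mass spectrometry following solid phase extraction, reported as mean ± SEM.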
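For absorption in this document: plasma drug concentrations quantified by liquid chromatography with tandem mass spectrometry following solid phase extraction, reported as mean ± SEM.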

Compound: CC(=N)NCCCC[C@H](N)C(=O)Nc1nnn[nH]1 [compound XI, 2S-amino-6-[(1-iminoethyl)amino]-N-(1H-tetrazol-5-yl)hexanamide, hydrate, dihydrochloride]
- Foci containing 1 Crypt (AOM-induced colonic ACF; 10 ppm in diet): 28.2 ± 1.8
- Foci containing 2 Crypt (AOM-induced colonic ACF; 10 ppm in diet): 31.7 ± 2.7
- Foci containing 3 Crypt (AOM-induced colonic ACF; 10 ppm in diet): 29.3 ± 2.3
- Foci containing ≧4 Crypts (AOM-induced colonic ACF; 10 ppm in diet): 25.6 ± 1.8
- Total ACF incidence (AOM-induced colonic ACF; 10 ppm in diet): 115 ± 4.8
- Foci containing 1 Crypt (AOM-induced colonic ACF; 30 ppm in diet): 28.7 ± 2.9
- Foci containing 2 Crypt (AOM-induced colonic ACF; 30 ppm in diet): 32.6 ± 1.8
- Foci containing 3 Crypt (AOM-induced colonic ACF; 30 ppm in diet): 24.8 ± 1.7
- Foci containing ≧4 Crypts (AOM-induced colonic ACF; 30 ppm in diet): 22 ± 2.7
- Total ACF incidence (AOM-induced colonic ACF; 30 ppm in diet): 108 ± 5.5
- Foci containing 1 Crypt (AOM-induced colonic ACF; 100 ppm in diet): 28.6 ± 2.2
- Foci containing 2 Crypt (AOM-induced colonic ACF; 100 ppm in diet): 33.6 ± 2.1
- Foci containing 3 Crypt (AOM-induced colonic ACF; 100 ppm in diet): 17.7 ± 1.1
- Foci containing ≧4 Crypts (AOM-induced colonic ACF; 100 ppm in diet): 13.9 ± 1.1
- Total ACF incidence (AOM-induced colonic ACF; 100 ppm in diet): 93.8 ± 4.2
- effect on AOM-induced total colonic ACF and multicrypt clusters of 4 or more crypts (AOM-induced colonic ACF; 100 ppm, compared to control diet): suppressed
- NOS Activity, NOS (NOS): 9.8 ± 1.5 pmoles [^3H]-citrulline/mg pro
- suppression of AOM-induced colonic mucosal iNOS activity (iNOS; 100 ppm): ~37%
- NOS Activity, iNOS (iNOS; 100 ppm in diet, AOM-treated rats, colonic mucosa, Mean ± SEM): 1.6 ± 0.2 pmoles [^3H]-citrulline/mg pro
- concentration at 1 week on diet (in vivo; 10 ppm in diet): 461 ng/mL
- concentration at 5 weeks on diet (in vivo; 10 ppm in diet): 341 ng/mL
- concentration at 9 weeks on diet (in vivo; 10 ppm in diet): 254 ng/mL
- concentration at 1 week on diet (in vivo; 20 ppm in diet): 1320 ± 71 ng/mL
- concentration at 5 weeks on diet (in vivo; 20 ppm in diet): 821 ± 32 ng/mL
- concentration at 9 weeks on diet (in vivo; 20 ppm in diet): 742 ± 7 ng/mL
- concentration at 1 week on diet (in vivo; 100 ppm in diet): 4310 ng/mL
- concentration at 5 weeks on diet (in vivo; 100 ppm in diet): 2810 ng/mL
- concentration at 9 weeks on diet (in vivo; 100 ppm in diet): 2640 ng/mL
- absorption (3 dose levels (10, 30, 100 ppm in diet)): Dose-dependant
- Plasma level (10 ppm in diet, Early, One week on diet, Mean ± SEM, hydrate, dihydrochloride): 461 ± 15 ηg/mI
- Plasma level (10 ppm in diet, Late, 9 weeks on diet, Mean ± SEM, hydrate, dihydrochloride): 254 ± 13 ηg/mI
- Plasma level (10 ppm in diet, Mid, 5 weeks on diet, Mean ± SEM, hydrate, dihydrochloride): 341 ± 9.7 ηg/mI
- Plasma level of compound XI (30 ppm compound XI + 500 ppm Celecoxib in diet, Early, One week on diet): 1240 ± 37 + ηg/mI
- Plasma level of compound XI (30 ppm compound XI + 500 ppm Celecoxib in diet, Late, 9 weeks on diet): 788 ± 63 ηg/mI
- Plasma level of compound XI (30 ppm compound XI + 500 ppm Celecoxib in diet, Mid, 5 weeks on diet): 901 ± 5.0 + ηg/mI
- Plasma level (30 ppm in diet, first of 3 time points): 1315 ηg/ml
- Plasma level (30 ppm in diet, second of 3 time points): 821 ηg/ml
- Plasma level (30 ppm in diet, third of 3 time points): 742 ηg/ml
- Plasma level of compound XI (100 ppm compound XI + 500 ppm Celecoxib in diet, Early, One week on diet): 4370 ± 112 + ηg/mI
- Plasma level of compound XI (100 ppm compound XI + 500 ppm Celecoxib in diet, Late, 9 weeks on diet): 2477 ± 204 + ηg/mI
- Plasma level of compound XI (100 ppm compound XI + 500 ppm Celecoxib in diet, Mid, 5 weeks on diet): 3096 ± 344 + ηg/mI
- Plasma level (100 ppm in diet, Early, One week on diet, Mean ± SEM, hydrate, dihydrochloride): 4306 ± 146 ηg/mI
- Plasma level (100 ppm in diet, Late, 9 weeks on diet, Mean ± SEM, hydrate, dihydrochloride): 2639 ± 268 ηg/mI
- Plasma level (100 ppm in diet, Mid, 5 weeks on diet, Mean ± SEM, hydrate, dihydrochloride): 2811 ± 82 ηg/mI
